The compounds below were run against T1, Lp-PLA2 in human plasma (Homo sapiens, UniProt Q13093) (assay: (3a) Lp-PLA2 human plasma Thio-PAF assay). Conditions: (3a) Thio-PAF assay, pooled human plasma; Examples 1-265 and 413-430 were tested here; read-out: pIC50 in the Lp-PLA2 human plasma assay (converted).
T1 construct: from tissue; host or cells: pooled human plasma
T1 sequence (Q13093 22-441): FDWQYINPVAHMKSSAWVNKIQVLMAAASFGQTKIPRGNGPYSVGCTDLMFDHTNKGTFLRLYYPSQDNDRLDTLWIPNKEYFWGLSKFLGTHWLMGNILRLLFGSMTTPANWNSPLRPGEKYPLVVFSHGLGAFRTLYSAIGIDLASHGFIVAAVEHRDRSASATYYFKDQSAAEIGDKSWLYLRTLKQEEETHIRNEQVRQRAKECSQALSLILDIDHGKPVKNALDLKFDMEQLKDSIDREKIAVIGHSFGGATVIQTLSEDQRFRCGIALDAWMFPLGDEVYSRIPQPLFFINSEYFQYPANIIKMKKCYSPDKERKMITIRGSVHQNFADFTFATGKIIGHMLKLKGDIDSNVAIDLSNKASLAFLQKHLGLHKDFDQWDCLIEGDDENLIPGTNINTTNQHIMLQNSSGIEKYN
Type: biochemical
Text: (3) Lipoprotein-Associated Phospholipase A2 (Lp-PLA2) Human Plasma Assay
The human plasma assay utilizes a thioester analog of PAF (phosphatidylcholine), where hydrolysis yields to the formation of a phospholipid containing a free thiol group. The amount of thiol is quantitated continuously by reacting with CPM (7-diethylamino-3-(4′-maleimidylphenyl)-4-methylcoumarin), a maleimide which increases in fluoresence after Michael addition of thiols. This assay may detect the activity of Lp-PLA2 in human plasma, as determined by specific inhibition by Lp-PLA2 inhibitors.
The thio-PAF assay was run as a quenched 15 μL assay. Compounds source plate was prepared by making 1:3 (by volume) serial dilution of the compounds into pure DMSO on 384-well microplate. 0.01 μL of compounds on compound source plate were transferred to 384 well Greiner 784076 (black) low-volume plates by ECHO liquid dispenser. 8 μL pooled human plasma, which was previously aliquoted and frozen, was added. Plates were centrifuged for 10 sec at 500 rpm. After 30 minutes preincubation, 2 μL of substrate solution comprising 2.5 mM 2-thio-PAF [from ethanol stock], 32 μM CPM [from a DMSO stock] and 3.2 mM NEM (N-ethylmaleimide) [made fresh daily in DMSO] in assay buffer of 50 mM HEPES, pH 7.4, 150 mM NaCl, 1 mM CHAPS was added to 384 well Greiner 784076 (black) low-volume plates by BRAVO liquid handling station. After 2 mins, reaction was quenched with 5 μL of 5% aqueous trifluoroacetic acid (TFA). Plates were covered to protect from light and incubated for 40 min at room temperature. Plates were read at ex: 380/em: 485 using Envision microplate reader. PIC50 data, curve and QC analysis were conducted by using XLFit module in Excel.

Row | IC50 [µM] | SMILES
1 | ≤ 10 | O=c1nc(OCc2cc(F)cc(F)c2)cc2n1C[C@@H]1CCCN21 [Example E215, (S)-3-((3,5-difluorobenzyl)oxy)-7,8,8a,9-tetrahydropyrrolo[1′,2′:3,4]imidazo[1,2-c]pyrimidin-1(6H)-one]
2 | ≤ 10 | O=c1nc(OCc2cc(F)c(F)cc2F)cc2n1C[C@H]1CCCN21 [Example E218, (R)-3-((2,4,5-trifluorobenzyl)oxy)-7,8,8a,9-tetrahydropyrrolo[1′,2′:3,4]imidazo[1,2-c]pyrimidin-1(6H)-one]
3 | ≤ 10 | N#Cc1ccc(CCOc2cc3n(c(=O)n2)C[C@H]2COCCN32)cc1 [Example E255, (S)-4-(2-((9-oxo-1,3,4,9,11,11a-hexahydropyrimido[6′,1′:2,3]imidazo[5,1-c][1,4]oxazin-7-yl)oxy)ethyl)benzonitrile]
4 | ≤ 10 | O=c1nc(OCc2cc(F)c(F)cc2F)cc2n1C[C@H]1COCN21 [Example E173, (S)-6-((2,4,5-trifluorobenzyl)oxy)-10,10a-dihydro-1H-oxazolo[3′,4′:3,4]imidazo[1,2-c] pyrimidin-8(3H)-one]
5 | ≤ 10 | O=c1nc(OCc2cc(F)c(OC3(CCF)CC3)c(F)c2)cc2n1C[C@@H]1COCCN21 [Example E258, (R)-7-((3,5-difluoro-4-(1-(2-fluoroethyl)cyclopropoxy)benzyl)oxy)-3,4,11,11a-tetrahydropyrimido[6′,1′:2,3]imidazo[5,1-c][1,4]oxazin-9(1H)-one]
6 | ≤ 10 | O=c1nc(OCc2cccc(F)c2F)cc2n1C[C@H]1COCN21 [Example E169, (S)-6-((2,3-difluorobenzyl)oxy)-10,10a-dihydro-1H-oxazolo[3′,4′:3,4]imidazo[1,2-c]pyrimidin-8(3H)-one]
7 | ≤ 10 | O=c1nc(OCc2cc(F)c(F)cc2F)cc2n1C[C@H]1COCCN21 [Example E220, (S)-7-((2,4,5-trifluorobenzyl)oxy)-3,4,11,11a-tetrahydropyrimido[6′,1′:2,3]imidazo[5,1-c] [1,4]oxazin-9(1H)-one]
8 | ≤ 0.1 | O=c1nc(OCc2cccc(F)c2F)cc2n1C[C@@H]1COCCN21 [Example E221, (R)-7-((2,3-difluorobenzyl)oxy)-3,4,11,11a-tetrahydropyrimido[6′,1′:2,3]imidazo[5,1-c][1,4]oxazin-9(1H)-one]
9 | ≤ 10 | O=c1nc(OCc2cccc(F)c2F)cc2n1C[C@@H]1COCN21 [Example E172, (R)-6-((2,3-difluorobenzyl)oxy)-10,10a-dihydro-1H-oxazolo[3′,4′:3,4]imidazo[1,2-c] pyrimidin-8(3H)-one]
10 | ≤ 10 | O=c1nc(OCCc2cccc(F)c2)cc2n1C[C@H]1CCCN21 [Example E249, (R)-3-(3-fluorophenethoxy)-7,8,8a,9-tetrahydropyrrolo[1′,2′:3,4]imidazo[1,2-c]pyrimidin-1(6H)-one]
11 | ≤ 10 | O=c1nc(OCc2ccc(F)cc2F)cc2n1C[C@@H]1CCOCN21 [Example E180, (S)-3-((2,4-difluorobenzyl)oxy)-8,9,9a,10-tetrahydropyrimido[6′,1′:2,3]imidazo[1,5-c][1,3]oxazin-1(6H)-one]
12 | ≤ 10 | O=c1nc(OCCc2cccc(F)c2)cc2n1C[C@H]1COCN21 [Example E186, (S)-6-(3-fluorophenethoxy)-10,10a-dihydro-1H-oxazolo[3′,4′:3,4]imidazo[1,2-c]pyrimidin-8(3H)-one]
13 | ≤ 10 | N#Cc1ccc(CCOc2cc3n(c(=O)n2)C[C@H]2CCCN32)cc1 [Example E254, (R)-4-(2-((1-oxo-1,6,7,8,8a,9-hexahydropyrrolo[1′,2′:3,4]imidazo[1,2-c]pyrimidin-3-yl)oxy)ethyl)benzonitrile]
14 | ≤ 10 | CCCCN1CC(Oc2c(F)cc(COc3cc4n(c(=O)n3)C[C@@H]3CCCN43)cc2F)C1 [Example E207, (S)-3-((4-((1-butylazetidin-3-yl)oxy)-3,5-difluorobenzyl)oxy)-7,8,8a,9-tetrahydropyrrolo[1′,2′:3,4]imidazo[1,2-c]pyrimidin-1(6H)-one]
15 | ≤ 10 | O=c1nc(OCc2cc(F)c(OC3CCC(F)(F)CC3)c(F)c2)cc2n1C[C@@H]1CCCN21 [Example E206, (S)-3-((4-((4,4-difluorocyclohexyl)oxy)-3,5-difluorobenzyl)oxy)-7,8,8a,9-tetrahydropyrrolo[1′,2′:3,4]imidazo[1,2-c]pyrimidin-1(6H)-one]
16 | ≤ 10 | Cn1cc(Oc2c(F)cc(COc3cc4n(c(=O)n3)CC3OCCN43)cc2F)cn1 (single isomer, unassigned) [Example E189, 6-((3,5-difluoro-4-((1-methyl-1H-pyrazol-4-yl)oxy)benzyl)oxy)-10,10a-dihydro-2H-oxazolo[3′,2′:3,4]imidazo[1,2-c]pyrimidin-8(3H)-one]
17 | ≤ 10 | O=c1nc(OCc2cccc(F)c2F)cc2n1C[C@@H]1CCCN21 [Example E212, (S)-3-((2,3-difluorobenzyl)oxy)-7,8,8a,9-tetrahydropyrrolo[1′,2′:3,4]imidazo[1,2-c]pyrimidin-1(6H)-one]
18 | ≤ 10 | O=c1nc(OCc2cccc(F)c2)cc2n1C[C@@H]1CCCN21 [Example E214, (S)-3-((3-fluorobenzyl)oxy)-7,8,8a,9-tetrahydropyrrolo[1,2′:3,4]imidazo[1,2-c]pyrimidin-1(6H)-one]
19 | ≤ 10 | O=c1nc(OCc2cc(F)c(OC3(CCF)CC3)c(F)c2)cc2n1C[C@H]1COCCN21 [Example E262, (S)-7-((3,5-difluoro-4-(1-(2-fluoroethyl)cyclopropoxy)benzyl)oxy)-3,4,11,11a-tetrahydropyrimido[6′,1′:2,3]imidazo[5,1-c][1,4]oxazin-9(1H)-one]
20 | ≤ 10 | O=c1nc(OCc2ccc(F)cc2F)cc2n1C[C@@H]1COCN21 [Example E174, (R)-6-((2,4-difluorobenzyl)oxy)-10,10a-dihydro-1H-oxazolo[3′,4′:3,4]imidazo[1,2-c]pyrimidin-8(3H)-one]
21 | ≤ 10 | O=c1nc(OCc2cccc(F)c2F)cc2n1C[C@@H]1CCOCN21 [Example E183, (S)-3-((2,3-difluorobenzyl)oxy)-8,9,9a,10-tetrahydropyrimido[6′,1′:2,3]imidazo[1,5-c][1,3] oxazin-1(6H)-one]
22 | ≤ 10 | O=c1nc(OCc2cc(F)c(F)cc2F)cc2n1C[C@@H]1COCCN21 [Example E219, (R)-7-((2,4,5-trifluorobenzyl)oxy)-3,4,11,11a-tetrahydropyrimido[6′,1′:2,3]imidazo[5,1-c] [1,4]oxazin-9(1H)-one]
23 | ≤ 10 | O=c1nc(OCc2cc(F)c(F)c(F)c2)cc2n1CC1OCCN21 (stereo not shown) [Example E188, 6-((3,4,5-Trifluorobenzyl)oxy)-10,10a-dihydro-2H-oxazolo[3′,2′:3,4]imidazo[1,2-c]pyrimidin-8(3H)-one]
24 | ≤ 10 | O=c1nc(OCc2cc(F)cc(F)c2)cc2n1C[C@@H]1CCOCN21 [Example E182, (S)-3-((3,5-difluorobenzyl)oxy)-8,9,9a,10-tetrahydropyrimido[6′,1′:2,3]imidazo[1,5-c][1,3] oxazin-1(6H)-one]
25 | ≤ 10 | O=c1nc(OCc2ccc(F)cc2F)cc2n1C[C@H]1CCOCN21 [Example E177, (R)-3-((2,4-difluorobenzyl)oxy)-8,9,9a,10-tetrahydropyrimido[6′,1′:2,3]imidazo[1,5-c][1,3] oxazin-1(6H)-one]
26 | ≤ 10 | O=c1nc(OCc2cccc(F)c2F)cc2n1CC1OCCN21 (stereo not shown) [Example E187, 6-((2,3-Difluorobenzyl)oxy)-10,10a-dihydro-2H-oxazolo[3′,2′:3,4]imidazo[1,2-c]pyrimidin-8(3H)-one]
27 | ≤ 10 | O=c1nc(OCc2cc(F)c(OC3(CCF)CC3)c(F)c2)cc2n1C[C@H]1COCN21 [Example E197, (S)-6-((3,5-difluoro-4-(1-(2-fluoroethyl)cyclopropoxy)benzyl)oxy)-10,10a-dihydro-1H-oxazolo[3′,4′:3,4]imidazo[1,2-c]pyrimidin-8(3H)-one]
28 | ≤ 10 | O=c1nc(OCc2cc(F)cc(F)c2)cc2n1C[C@@H]1COCN21 [Example E176, (R)-6-((3,5-difluorobenzyl)oxy)-10,10a-dihydro-1H-oxazolo[3′,4′:3,4]imidazo[1,2-c] pyrimidin-8(3H)-one]

— patent US11999746B2, “Compounds” (GlaxoSmithKline Intellectual Property Development Limited, priority 2014, dated 2024)
